Test results: patent US12559464B2, “Quinazolinone dione compounds and uses thereof” (Edgewise Therapeutics, Inc., priority 2023, dated 2026)

Columns and labels:
[1] = test system: myosin ATPase, Porcine Atria myofibrils; experiment: Myofibril ATPase assay, porcine atria myofibrils; assay type: biochemical; conditions: concentration required to reduce myosin ATP-ase activity by 25%; Porcine Atria Prep pCa 25 GEOM_MEAN
[2] = test system: myosin ATPase, Rabbit Psoas myofibrils; experiment: Myofibril ATPase assay, rabbit psoas (skeletal) myofibrils; assay type: biochemical; conditions: Rabbit Psoas Prep pCa 25 GEOM_MEAN; for Rabbit Psoas EC25 (Y75 value): concentration required to reduce myosin ATP-ase activity by 25%
Procedure: [Worded in the source for another species; this species is reported under the same test.] (§1) Myofibril ATPase assays are known in the art to be useful in evaluating small molecules for the treatment of HCM and other cardiac indications. Myosin ATPase activity is assessed by using a coupled reaction system, in which ADP generated by the myosin ATPase function is coupled to the disappearance of NADH through the pyruvate kinase/lactate dehydrogenase (PK-LDH) system. ATPase activity produces ADP, which is used as a substrate for PK to produce pyruvate and regenerate ATP. The pyruvate is then used as a substrate by LDH to oxidize NADH to NAD+. The rate of the reaction is monitored through the time-dependent disappearance of NADH using absorbance at 340 nm, which, when the couple system is in stoichiometric excess, is directly correlated to the ATPase activity of the myosin. Inhibition of ATPase activity by the assayed compounds is indicated by a reduced rate of NADH loss, relative to vehicle-treated controls, over the experimental time window. Porcine Ventricle are the primary sources of myofibril material.
(§2) Materials: The following stock solutions and reagents were used in the Myofibril ATPase Assay: Stock Solutions; PIPES, 200 mM and 120 mM in H2O, pH 7.0; MgCl2 in H2O, 200 mM; PM12 Buffer, 10×: 120 mM PIPES (from 200 mM stock), 20 mM MgCl2 (from 200 mM stock); PBS Buffer, 1X: 135 mM NaCl, […], 10 mM Na(PO4)2, 1.8 mM K2(PO4), pH 7.4; EGTA in H2O, 250 mM; CaCl2) in H2O, 500 mM; DTT in H2O, 1 M; BSA in H2O, 10 mg/mL; ATP in 1×PBS, 50 mM; NADH in 1X PM12 and 1 mM DTT, 26 mM; PEP in 1X PM12, 78 mM, pH 7.0.
(§3) Stock Solutions of pCa buffer. Combine PIPES, CaCl2, and EGTA solutions with water. Adjust pH to 7.0 and bring final volume to 100 mL.
(§4) Buffer A & Buffer B. Prepare buffers A and B according to the table below.
(§5) Myofibril ATPase Assay Procedure: BSA, ATP, NADH, PEP, and DTT solutions were thawed at room temperature, then transferred to ice. Pellet-frozen myofibrils were transferred with approximately twice the required volume into a sufficiently large tube and capped. Myofibrils were thawed by rolling in a water bath for approximately 15 min at room temperature and cooled on ice. Buffers A and B were prepared by adjusting volumes as necessary for required number of wells and stored on ice. 0.5 μL of the compounds to be assayed were added into wells. 25 μL of Buffer A was dispensed into the wells, followed by 25 μL of Buffer B. The wells were measured for absorbance at 340 nm, using a kinetic protocol in which the wells are read every 1.5-2 min for 75 min. Assay data analysis was performed using a python script that filtered the raw data to retain those points falling between a starting and ending time and between a maximum and minimum absorbance, then used the filtered time-domain 340 nm absorbance data in each well to calculate a slope via linear regression analysis in units of mAU/min. Compound slopes were normalized between 100% and 0% activity, where 100% represented the slope of wells containing only compound vehicle, and fit to a 4-parameter logistic model. In addition to the fit parameters, the EC25% values were calculated, relative to the 100% normalized value. Additionally, the Y125 values were calculated for compounds that increased myosin ATP-ase activity. Fit parameters, calculated effective concentrations, filtered raw data, and calculated slopes were exported, in addition to compound-specific graphs of normalized ATPase activity versus concentration in μM. Each value reported in Table 8 is either a Y75 value or a Y125 value. Values without pound sign, #, are Y75 values, which reflect the concentration required to reduce myosin ATP-ase activity by 25% (e.g., Y-axis activity value is 75% of initial value), relative to myosin ATP-ase activity in the absence of exogenous compound. […]

[3] = target: T1, myosin ATPase, Porcine Ventricle myofibrils (Sus scrofa, UniProt P79293); experiment: Myofibril ATPase assay, porcine ventricle myofibrils; assay type: biochemical, porcine (Yucatan minipigs); conditions: concentration required to reduce myosin ATP-ase activity by 25%; Porcine Ventricle Prep pCa 25 GEOM_MEAN
T1 construct: Myofibrils from porcine cardiac muscle was isolated from the left ventricle of Yucatan minipigs; tissue Exemplar Genetics; host or cells: left ventricle of Yucatan minipigs, myofibrils
Procedure: as §1, §2, §3, §4, §5

T1 sequence (P79293 whole entry): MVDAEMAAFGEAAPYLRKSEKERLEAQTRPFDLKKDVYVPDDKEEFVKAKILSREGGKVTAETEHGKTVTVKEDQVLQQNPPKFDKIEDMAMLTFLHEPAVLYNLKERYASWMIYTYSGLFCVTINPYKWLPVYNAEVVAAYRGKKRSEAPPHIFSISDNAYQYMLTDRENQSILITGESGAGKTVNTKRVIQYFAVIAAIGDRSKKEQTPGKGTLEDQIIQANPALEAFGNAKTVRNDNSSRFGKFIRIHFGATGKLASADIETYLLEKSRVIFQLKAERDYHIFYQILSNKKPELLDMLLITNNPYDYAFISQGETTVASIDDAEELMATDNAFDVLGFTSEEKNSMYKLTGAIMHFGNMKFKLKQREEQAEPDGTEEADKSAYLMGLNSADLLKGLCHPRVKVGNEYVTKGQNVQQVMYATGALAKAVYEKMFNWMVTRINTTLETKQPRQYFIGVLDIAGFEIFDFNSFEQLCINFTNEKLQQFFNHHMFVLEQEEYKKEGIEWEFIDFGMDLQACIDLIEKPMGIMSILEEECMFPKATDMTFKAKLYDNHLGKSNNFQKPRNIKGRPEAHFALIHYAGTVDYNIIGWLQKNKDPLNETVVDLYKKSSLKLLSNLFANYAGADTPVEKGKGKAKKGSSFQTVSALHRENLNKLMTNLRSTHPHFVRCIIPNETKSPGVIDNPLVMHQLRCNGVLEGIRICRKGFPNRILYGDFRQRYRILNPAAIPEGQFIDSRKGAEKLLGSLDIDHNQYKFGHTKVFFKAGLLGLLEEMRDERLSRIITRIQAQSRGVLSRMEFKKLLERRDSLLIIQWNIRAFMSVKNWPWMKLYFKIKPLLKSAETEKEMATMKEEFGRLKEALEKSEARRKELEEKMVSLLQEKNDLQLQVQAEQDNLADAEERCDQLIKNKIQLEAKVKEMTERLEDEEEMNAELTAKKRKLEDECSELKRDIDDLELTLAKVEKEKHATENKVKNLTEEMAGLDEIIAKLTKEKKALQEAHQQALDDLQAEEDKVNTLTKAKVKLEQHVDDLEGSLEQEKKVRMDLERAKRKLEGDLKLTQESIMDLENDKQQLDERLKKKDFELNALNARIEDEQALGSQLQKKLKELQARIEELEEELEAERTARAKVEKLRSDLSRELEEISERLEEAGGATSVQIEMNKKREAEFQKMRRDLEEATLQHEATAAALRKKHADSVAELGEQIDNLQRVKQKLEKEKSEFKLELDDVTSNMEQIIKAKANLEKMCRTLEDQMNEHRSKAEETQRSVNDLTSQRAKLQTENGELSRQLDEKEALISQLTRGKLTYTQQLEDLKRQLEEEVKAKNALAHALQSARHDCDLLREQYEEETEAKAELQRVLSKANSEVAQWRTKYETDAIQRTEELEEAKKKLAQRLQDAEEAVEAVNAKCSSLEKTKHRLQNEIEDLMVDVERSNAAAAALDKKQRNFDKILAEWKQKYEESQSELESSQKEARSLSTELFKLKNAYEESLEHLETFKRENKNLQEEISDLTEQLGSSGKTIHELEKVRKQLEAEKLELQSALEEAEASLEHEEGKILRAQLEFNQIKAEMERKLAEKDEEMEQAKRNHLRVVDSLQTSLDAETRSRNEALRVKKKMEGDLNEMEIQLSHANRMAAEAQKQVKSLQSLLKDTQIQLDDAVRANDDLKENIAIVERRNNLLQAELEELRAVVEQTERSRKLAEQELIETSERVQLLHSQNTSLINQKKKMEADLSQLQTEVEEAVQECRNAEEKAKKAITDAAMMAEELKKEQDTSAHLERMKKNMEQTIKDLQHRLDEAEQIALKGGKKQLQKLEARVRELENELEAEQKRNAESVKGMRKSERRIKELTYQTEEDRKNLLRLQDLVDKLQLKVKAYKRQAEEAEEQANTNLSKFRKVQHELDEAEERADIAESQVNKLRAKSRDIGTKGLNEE

Compound	Porcine Atria EC25 (Y75 value) [1]	Rabbit Psoas EC25 (Y75 value) [2]	Porcine Ventricle EC25 (Y75 value) [3]	Rabbit Psoas Y125 value (marked #) ([2]; concentration required to increase myosin ATP-ase activity by 25%)
C[C@@H](NC(=O)Cn1c(=O)[nH]c2cccc(F)c2c1=O)c1ncc(C#N)cc1F (single isomer, unassigned) [Compound 207]	100 µM	4.593 µM	100 µM	–
Cc1c(F)ccc2[nH]c(=O)n(CC(=O)N[C@@H]3COc4cc(C#N)cnc43)c(=O)c12 (single isomer, unassigned) [Compound 701]	0.07 µM	0.023 µM	0.075 µM	–
CC(C)[C@H](N)C(=O)OCn1c(=O)n(CC(=O)N[C@@H](C)c2ccc(F)cc2F)c(=O)c2cc(F)ccc21 [Compound 401, (3-(2-(((S)-1-(2,4-difluorophenyl)ethyl)amino)-2-oxoethyl)-6-fluoro-2,4-dioxo-3,4-dihydroquinazolin-1(2H)-yl)methyl L-valinate]	46.5 µM	6.978 µM	100 µM	–
C[C@H](NC(=O)[C@H](C)n1c(=O)[nH]c2ccccc2c1=O)c1ccc(F)cc1F (single isomer, unassigned) [Compound 102]	1.175 µM	0.761 µM	99.13 µM	–
C[C@@H](NC(=O)C1(n2c(=O)[nH]c3ccc(F)c(F)c3c2=O)CC1)c1ncc(C#N)cc1F (single isomer, unassigned) [Compound 3011]	0.42 µM	4.77 µM	13.07 µM	–
COc1ccc2c(=O)n(CC(=O)N[C@@H](C)c3ccc(F)cc3F)c(=O)[nH]c2c1 [Compound 142, (S)-N-(1-(2,4-difluorophenyl)ethyl)-2-(7-methoxy-2,4-dioxo-1,4-dihydroquinazolin-3(2H)-yl)acetamide]	100 µM	100 µM	100 µM	–
COc1cccc2[nH]c(=O)n(CC(=O)N[C@@H](C)c3ccc(F)cc3F)c(=O)c12 [Compound 69, (S)-N-(1-(2,4-difluorophenyl)ethyl)-2-(5-methoxy-2,4-dioxo-1,4-dihydroquinazolin-3(2H)-yl)acetamide]	21.1 µM	1.147 µM	100 µM	–
O=C(Cn1c(=O)[nH]c2ccccc2c1=O)NC(c1ccc(Cl)cc1)c1cccs1 (stereo not drawn) [Compound 515, N-((4-chlorophenyl)(thiophen-2-yl)methyl)-2-(2,4-dioxo-1,4-dihydroquinazolin-3(2H)-yl)acetamide]	100 µM	100 µM	100 µM	–
CC(C)C[C@H](C(=O)N[C@@H](C)c1ccc(F)cc1F)n1c(=O)[nH]c2ccccc2c1=O (single isomer, unassigned) [Compound 32]	68.73 µM	–	100 µM	7.64^#^ μM
C[C@H](NC(=O)Cn1c(=O)[nH]c2ccnc(O)c2c1=O)c1ccc(F)cc1F [Compound 59, (S)-N-(1-(2,4-difluorophenyl)ethyl)-2-(5-hydroxy-2,4-dioxo-1,4-dihydropyrido[4,3-d]pyrimidin-3(2H)-yl)acetamide]	100 µM	100 µM	100 µM	–
C[C@H](NC(=O)C(C)(C)n1c(=O)[nH]c2ccccc2c1=O)c1ccc(F)cc1F [Compound 42, (S)-N-(1-(2,4-difluorophenyl)ethyl)-2-(2,4-dioxo-1,4-dihydroquinazolin-3(2H)-yl)-2-methylpropanamide]	100 µM	100 µM	100 µM	–

Now from value to molecule:

Porcine Atria EC25 (Y75 value) [1]	Rabbit Psoas EC25 (Y75 value) [2]	Porcine Ventricle EC25 (Y75 value) [3]	Rabbit Psoas Y125 value (marked #) ([2]; concentration required to increase myosin ATP-ase activity by 25%)	Compound
100 µM	100 µM	100 µM	–	C[C@H](NC(=O)Cn1c(=O)[nH]c2c(Cl)cccc2c1=O)c1ccc(F)cc1F [Compound 408, (S)-2-(8-chloro-2,4-dioxo-1,4-dihydroquinazolin-3(2H)-yl)-N-(1-(2,4-difluorophenyl)ethyl)acetamide]
7.86 µM	16.05 µM	100 µM	–	CC(NC(=O)Cn1c(=O)[nH]c2ccccc2c1=O)c1ccccc1Cl (stereo not drawn) [Compound 523, N-(1-(2-chlorophenyl)ethyl)-2-(2,4-dioxo-1,4-dihydroquinazolin-3(2H)-yl)acetamide]
100 µM	100 µM	100 µM	–	C[C@H](NC(=O)Cn1c(=O)[nH]c2ccccc2c1=O)c1ccc(O)nc1 (single isomer, unassigned) [Compound 98]
0.1151 µM	0.019 µM	0.2524 µM	–	C[C@H](NC(=O)Cn1c(=O)[nH]c2cccc(O)c2c1=O)c1ccc(F)cc1F [Compound 72, (S)-N-(1-(2,4-difluorophenyl)ethyl)-2-(5-hydroxy-2,4-dioxo-1,4-dihydroquinazolin-3(2H)-yl)acetamide]
100 µM	72.241 µM	100 µM	–	CC(NC(=O)Cn1c(=O)[nH]c2ccccc2c1=O)c1ccc(F)cn1 (stereo not drawn) [Compound 106, 2-(2,4-dioxo-1,4-dihydroquinazolin-3(2H)-yl)-N-(1-(5-fluoropyridin-2-yl)ethyl)acetamide]
1.442 µM	1.97 µM	100 µM	–	CC(NC(=O)Cn1c(=O)[nH]c2ccccc2c1=O)c1ncc(F)cc1F (stereo not drawn) [Compound 47, N-(1-(3,5-difluoropyridin-2-yl)ethyl)-2-(2,4-dioxo-1,4-dihydroquinazolin-3(2H)-yl)acetamide]
100 µM	100 µM	100 µM	–	CC(NC(=O)Cn1c(=O)[nH]c2ccccc2c1=O)c1ccncc1 (stereo not drawn) [Compound 213, 2-(2,4-dioxo-1,4-dihydroquinazolin-3(2H)-yl)-N-(1-(pyridin-4-yl)ethyl)acetamide]
100 µM	100 µM	100 µM	–	COc1ccc([C@H](C)NC(=O)Cn2c(=O)[nH]c3ccccc3c2=O)cc1 (single isomer, unassigned) [Compound 529]
12.67 µM	3.86 µM	53.2 µM	–	CCC(NC(=O)Cn1c(=O)[nH]c2ccccc2c1=O)c1ccc(F)cc1F (stereo not drawn) [Compound 71, N-(1-(2,4-difluorophenyl)propyl)-2-(2,4-dioxo-1,4-dihydroquinazolin-3(2H)-yl)acetamide]
79.37 µM	100 µM	100 µM	–	CC(NC(=O)Cn1c(=O)[nH]c2ccccc2c1=O)c1cccc(F)c1 (stereo not drawn) [Compound 519, 2-(2,4-dioxo-1,4-dihydroquinazolin-3(2H)-yl)-N-(1-(3-fluorophenyl)ethyl)acetamide]
